According to patent publication US6063777A, “Iminochlorinaspartic acid derivatives” (Wyeth Lederle Japan, Ltd., priority 1996, dated 2000):

How the values were obtained:
[1] = Laser irradiation to extirpated organ: distribution (cancer/organ ratio) by surface fluorescence, N2-pulsed laser, mice bearing Colon 26; type: in vivo, CDF1 mice; conditions: mouse, tumor/plasma, sodium salt, 10 mg/kg intravenous
Experimental: (§1) CDF1 mice (5 per group) were implanted with tumor tissues of colon cancer Colon 26. Two weeks after the implantation, the mice were given an intravenous injection of sodium salt of each of compounds (I) and (II) (10 mg/kg for each mouse) which had been diluted with a distilled water for injection. At 3 hrs, 6 hrs and 12 hrs after the injection, the blood samples were collected and the organs bearing the tumor tissue were extirpated, irradiated with N2 -pulsed laser (N2, wavelength: 337 nm, 2 ns), and the excited fluorescent spectrum was measured. The wavelengths in the range of 600 to 900 nm were examined based on the peak wavelength of NADH at 470 nm (determination of the distribution of the test compound in the organ by the surface fluorescence method using N2 -pulsed laser spectrophotometry). That is, cancer/organ (or plasma) ratio was determined by calculating the peak wavelength in the range of 600 to 900 nm when the peak wavelength at 470 nm was considered as the basic value, 1.

colon cancer Colon 26 = test: as above; type: in vivo, CDF1 mice; conditions: sodium salt, 10 mg/kg intravenous
Experimental: as §1

HeLa cells = test: HeLa cell survival after diode laser (670 nm) irradiation, MTS-PMS reagent; type: cell-based; conditions: Homo sapiens, HeLa, light or radiation study, sodium salt, 6 hrs, 670 nm, 25 J/cm^2, read-out: Cell Survival Rate
Experimental: HeLa cells were seeded in wells of a 96-well plate each containing 100 μl of a culture medium at 5×10^3 /well, and incubated at 37° C. overnight. In each well, the culture medium was removed, and 100 μl of a solution containing sodium salt of either of compound (I) or compound (II) in concentrations of 0, 6.25, 12.5, 25, 50 and 100 μM/ml was added (3 wells for each group of the concentrations) and incubated at 37° C. at for 6 hrs. Each well was washed with PBS(-) once, and then 100 μl of a fresh medium was added. The wells were irradiated using a diode laser (670 nm) under the conditions of 0.44W of laser intensity, 0.785 cm^2 of irradiation area (diameter: 1 cm) and 25 J/cm^2 of laser energy. After the irradiation, each well was incubated at 37° C. overnight and washed with PBS(-) once, then 100 μl of a fresh medium was added. To each well was added 20 μl of MTS-PMS reagent, and the well was further incubated at 37° C. for 2-4 hrs. The absorbance of each well at 492 nm was measured using a microplate reader. The cell survival rate at each of the above mentioned concentrations of the test compound was calculated considering the value for the well of 0 μM/ml of the test compound as 100%.

- Kp at 3 h ([1]; 3 hr): 0.3
- Kp at 6 h ([1]; 6 hr): 1.12
- Kp at 12 h ([1]; 12 hr): 0.66
- Cancer/Brain ratio (colon cancer Colon 26; 3 hr): 10.10
- Cancer/Kidney ratio (colon cancer Colon 26; 3 hr): 0.67
- Cancer/Liver ratio (colon cancer Colon 26; 3 hr): 0.62
- Cancer/Lung ratio (colon cancer Colon 26; 3 hr): 2.35
- Cancer/Muscle ratio (colon cancer Colon 26; 3 hr): 1.23
- Cancer/Brain ratio (colon cancer Colon 26; 6 hr): 16.0
- Cancer/Kidney ratio (colon cancer Colon 26; 6 hr): 0.59
- Cancer/Liver ratio (colon cancer Colon 26; 6 hr): 1.01
- Cancer/Lung ratio (colon cancer Colon 26; 6 hr): 4.59
- Cancer/Muscle ratio (colon cancer Colon 26; 6 hr): 1.26
- Cancer/Brain ratio (colon cancer Colon 26; 12 hr): 15.0
- Cancer/Kidney ratio (colon cancer Colon 26; 12 hr): 0.95
- Cancer/Liver ratio (colon cancer Colon 26; 12 hr): 1.11
- Cancer/Lung ratio (colon cancer Colon 26; 12 hr): 2.68
- Cancer/Muscle ratio (colon cancer Colon 26; 12 hr): 2.95
SMILES: C=Cc1c(C)c2cc3nc(cc4[nH]c(cc5nc(cc1[nH]2)C(C)(O)C5=CC=NO)c(C)c4CCC(=O)NC(CC(=O)O)C(=O)O)C(CCC(=O)NC(CC(=O)O)C(=O)O)=C3C (centres unmarked) [Compound (II), reference compound]
- viability at 6.25 µM (HeLa cells; 6.25 μM): 81%
- viability at 12.5 µM (HeLa cells; 12.5 μM): 54%
- viability at 25 µM (HeLa cells; 25 μM): 48%
- viability at 50 µM (HeLa cells; 50 μM): 35%
- viability at 100 µM (HeLa cells; 100 μM): 19%
